Consider two compounds from paper PMC11040352, “CD38‐Specific Gallium‐68 Labeled Peptide Radiotracer Enables Pharmacodynamic Monitoring in Multiple Myeloma with PET” (Advanced Science, 2024).

Assay [1] relates to MM cell lines (U266, RPMI8226, MM1S, and MOLP8). In words: ATRA treatment, in vitro uptake of [^68Ga]Ga‐AJ206. Particulars: ATRA treated cells compared to control treatment. In kind it is cell-based, human. Here is the method:
In vitro binding assays were conducted to determine the binding of [^68Ga]Ga‐AJ206 to U266, RPMI8226, MM1S, and MOLP8 cells. Approximately 1 µCi of [^68Ga]Ga‐AJ206 was incubated with 1 × 10^6 cells in 100 µL of culture media for 60 min at 4 °C. After incubation, cells were washed three times with ice‐cold PBS containing 0.1% tween‐20 and counted on an automated gamma counter (1282 Compugamma CS, Pharmacia/LKB Nuclear, Inc., Gaithersburg, MD). […] All cellular uptake studies were performed in quadruplicate for each cell line and repeated three times.
To evaluate the pharmacodynamic effects of ATRA therapy on MM cells, U266, RPMI8226, MM1S, and MOLP8 cells were seeded at a concentration of 0.5 million in 500 µL per well in triplicates in a six‐well plate. A 200 × 10^−9 M working solution of all‐trans retinoic acid (ATRA, Sigma‐Aldrich #554720) was prepared by diluting in culture media. Next, 500 µL of the working solution was added to each well, and the cells were incubated for 48 h at 37 °C in a 5% CO2 atmosphere. After incubation, cells were transferred to FACS tubes, medium was removed by centrifugation, and the cells were resuspended in FACS buffer for flow cytometry and in vitro binding studies, following the same protocol as previously described.

Another assay deals with PDX tumors. Description: PET imaging of patient‐derived xenografts (PDXs), incl. before and after ATRA. In kind it is in vivo, NSG mice. Particulars: PDX mice, oral ATRA 500 µg per day for 3 d, compared to pre‐treatment. Here is the method:
To establish PDX models, immune‐deficient NSG male mice (NOD/Shi‐scid IL‐2rgnull), aged 6–8 weeks, were employed after being irradiated at an absorbed dose of 200 cGy. PCL cells, sourced from two patients and anonymized, were obtained from Dr. Gocke's laboratory. Under sterile conditions, the cells were thawed and treated with DNAse at a concentration of 20 µg mL^−1. After cell counting, 30 000 cells were subjected to flow cytometry analysis to assess CD38 expression. The remaining cells were subcutaneously inoculated at a concentration of 5 × 10^6 cells in 100 µL of a solution comprising 60% Matrigel Basement Matrix (Corning 356230) diluted with HBSS. The animals were included in the experiments once the PDX volumes reached tumor volumes of 100–200 mm^3.
Mice bearing flank tumors and disseminated disease were injected intravenously with [^68Ga]Ga‐AJ206 and PET images were acquired 60 min after injection of the radiotracer. […] PET images were quantified by drawing ROI on tissues using Amide 1.0.6 and reported as %ID/cc.
To assess the pharmacodynamics of ATRA‐induced CD38 expression in vivo, mice bearing PDX tumors (n = 6) were subjected to image using [^68Ga]Ga‐AJ206 to quantify CD38 expression prior to treatment. […] All images were analyzed using AMIDE software with standard ROI analysis techniques.

In assay [2] the test system is MM cell lines (U266, RPMI8226, MM1S, and MOLP8). Description: ATRA treatment, flow cytometry of CD38 surface expression. In kind it is cell-based, human. As to conditions: four MM cell lines, ATRA 48 h.
Description: To evaluate CD38 surface expression, cells (1 × 10^6) were stained with PE‐labelled anti‐human CD38 monoclonal antibody (clone HB‐7, BioLegend Cat # 356604) in FACS buffer (0.5% FBS with 2 mM EDTA) for 30 min on ice. After washing and resuspending in FACS buffer, data were acquired on a BD Accuri C6 plus flow cytometer and analyzed using FlowJo software. Receptor density measurements were performed using Quantibrite Beads (BD Biosciences, cat #340495), which contain four levels of phycoerythrin (PE) per bead. Gates were drawn on low, medium low, medium high, and high PE binding beads, and the geometric mean from these populations was correlated with the lot‐specific PE molecule/bead on a logarithmic scale. This correlation was used to translate cell population geometric mean to receptor/cell for the respective cell type. To evaluate the pharmacodynamic effects of ATRA therapy on MM cells, U266, RPMI8226, MM1S, and MOLP8 cells were seeded at a concentration of 0.5 million in 500 µL per well in triplicates in a six‐well plate. A 200 × 10^−9 M working solution of all‐trans retinoic acid (ATRA, Sigma‐Aldrich #554720) was prepared by diluting in culture media. Next, 500 µL of the working solution was added to each well, and the cells were incubated for 48 h at 37 °C in a 5% CO2 atmosphere. […]
Assay [3] deals with T1, recombinant human CD38 protein (Homo sapiens, UniProt P28907).
T1 construct: purchased R&D systems 2404-AC
Description: Affinity measurement by surface plasmon resonance (SPR), human CD38. In kind it is binding. As for the experimental part:
The affinity of AJ206 for hCD38 and mCD38 recombinant proteins were evaluated by SPR. The experiments were conducted using a Biacore T200 instrument with a CM5 chip at 25 °C. The ligands used were His‐Tagged human CD38 (R&D systems, catalog # 2404‐AC, 43 kDa, 0.5 mg mL^−1 stock concentration) and mouse CD38 proteins (R&D systems, catalog # 4947‐AC, 40 kDa, 1.81 mg mL^−1 stock concentration), which were immobilized onto the CM5 chip. AJ206 (2089.2 Da, 10 × 10^−3 M stock concentration) was used as the analyte, which flowed over the ligand immobilized surface. FC2 was used as the experimental flow cell, while FC1 served as the reference. Anti‐His antibody (1 mg mL^−1 stock concentration) was immobilized on both FC1 and FC2 using standard amine coupling chemistry. The immobilization running buffer used was PBS‐P (20 × 10^−3 M phosphate buffer pH 7.4, 137 × 10^−3 M NaCl, 2.7 × 10^−3 M KCl, 0.05% v/v surfactant P20). Human CD38 was captured onto FC2 at a level of ≈860 RU, with a 1:20 dilution and 25 µg mL^−1 diluted concentration in PBS‐P. Mouse CD38 was captured onto FC4 at a level of 1360 RU, with a 1:50 dilution and 36.2 µg mL^−1 diluted concentration in PBS‐P. The theoretical R max values were calculated based on the captured response values and are presented in Table 2 , assuming a 1:1 interaction mechanism. […]

T1 sequence (P28907 whole entry): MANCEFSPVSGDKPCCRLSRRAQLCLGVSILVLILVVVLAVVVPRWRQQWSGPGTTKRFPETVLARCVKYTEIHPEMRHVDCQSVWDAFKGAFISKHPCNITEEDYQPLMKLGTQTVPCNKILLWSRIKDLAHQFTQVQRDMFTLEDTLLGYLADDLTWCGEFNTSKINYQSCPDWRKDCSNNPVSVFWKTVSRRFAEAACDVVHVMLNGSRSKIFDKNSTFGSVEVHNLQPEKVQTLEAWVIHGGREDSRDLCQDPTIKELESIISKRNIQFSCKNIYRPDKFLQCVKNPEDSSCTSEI

As to `CC1=C(/C=C/C(C)=C/C=C/C(C)=C/C(=O)O)C(C)(C)CCC1` [ATRA, all‐trans retinoic acid], the “change of [^68Ga]Ga‐AJ206 radioactivity uptake in treated cells” value in assay [1] is “significant increase”. The “change of [^68Ga]Ga‐AJ206 radioactivity uptake in tumors (PET)” value with PDX tumors is “significant increase”. Moreover, the “change of CD38 expression” value in assay [2] is listed as “increased CD38 expression”.
With `CC[C@H](C)[C@@H]1NC(=O)[C@@H]2CCCN2C(=O)[C@H](Cc2ccccc2)NC(=O)[C@H](CC(=O)O)NC(=O)[C@H](C)NC(=O)[C@@H]2CSCc3cc(cc(c3)CSC[C@H](NC(=O)[C@H](C)NC(=O)CCOCCOCCOCCNC(=O)CN3CCN(CC(=O)O)CCN(CC(=O)O)CC3)C(=O)N[C@@H](C(C)C)C(=O)N3CCC[C@H]3C(=O)N2)CSC[C@@H](C(N)=O)NC(=O)[C@H](Cc2ccc(O)cc2)NC(=O)[C@H](Cc2c[nH]c3ccccc23)NC1=O` [AJ206], the Kd in assay [3] (hCD38, read-out: dissociation constant (K D)) turned out to be 19.1 ± 0.99 nM. Besides, the koff in assay [3] (recombinant human CD38, mean ± SEM (n = 2), read-out: Koff (1/s) x10^-4) came to 0.0006 ± 0.000121 s⁻¹.
